The values below come from patent publication US6593303B1, “Anti-tumor synergetic composition” (Pharmacia & Upjohn, S.p.A., priority 1999, dated 2003).

Data set [1] relates to A549 human lung carcinoma. As to the kind of experiment: Antitumor activity on s.c. implanted A549 human lung carcinoma.
In data set [2] the test system is H207 human ovarian carcinoma. As to the kind of experiment: Antitumor activity on s.c. implanted H207 human ovarian carcinoma.
The test system of data set [3] is disseminated L1210 murine leukemia. As to the kind of experiment: Antileukemic activity against disseminated L1210 murine leukemia (cells injected iv).
Data set [4] deals with MX1 mammary carcinoma. As to the kind of experiment: Antitumor activity on s.c. injected MX1 mammary carcinoma. The format is in vivo, mice.
[5] abbreviates: Table 3, Paclitaxel alone 22 mg/kg/day iv +9,13,17.
Where [6] appears, read: Table 3, Paclitaxel alone 33 mg/kg/day iv +9,13,17.
Where [7] appears, read: Paclitaxel alone 22 mg/kg/day iv q4dx3.
Setting [8] is: Paclitaxel alone 33 mg/kg/day iv q4dx3.
Where [9] appears, read: Ia alone 1 mg/kg/day iv day +1,2.
[10] abbreviates: Table 2, Ia alone 1.5 mg/kg/day iv q4dx3.
The mark [11] stands for this setting: Table 3, Ia alone 2 mg/kg/day iv +7,11,15.
Setting [12] is: Ia alone 1.5 mg/kg/day iv q4dx3.
The mark [13] stands for this setting: Ia alone 0.5 mg/kg/day iv 8,12,16.
Where [14] appears, read: Ia alone 1 mg/kg/day iv 8,12,16.
Where [15] appears, read: Taxotere alone 5 mg/kg/day iv 10,14,18.
The mark [16] stands for this setting: Taxotere alone 10 mg/kg/day iv 10,14,18.
Setting [17] is: Table 2, CisPlatin alone 3 mg/kg/day iv q4dx2.

With `CC(=O)O[C@H]1C(=O)[C@@]2(C)[C@H]([C@H](OC(=O)c3ccccc3)[C@]3(O)C[C@H](OC(=O)[C@H](O)[C@@H](NC(=O)c4ccccc4)c4ccccc4)C(C)=C1C3(C)C)[C@]1(OC(C)=O)CO[C@@H]1C[C@@H]2O` [Paclitaxel], in data set [1] (setting [5]), the “Body weight Reduction % (day)” value was 0%; the “N° of Tumor-Free Survivors” value is 0/8; the “T-C N° of days (tumor growth delay, 1 g)” value was 27 days; the “T.I. % (tumor inhibition)” value is on record as 90%. Further, the “Tox (number of toxic deaths/number of mice)” value in data set [1] (setting [5]) is on record as 0/8. For the same compound, in data set [1] (setting [6]), the “Body weight Reduction % (day)” value came to 0%; the “N° of Tumor-Free Survivors” value is given as 0/8; the “T-C N° of days (tumor growth delay, 1 g)” value was determined as 29 days; the “T.I. % (tumor inhibition)” value came out at 93%. Moreover, the “Tox (number of toxic deaths/number of mice)” value in data set [1] (setting [6]) is on record as 0/8. In data set [2] (setting [7]), the “Body weight Reduction % (day)” value is given as 0%; the “N° of Tumor-Free Survivors” value is on record as 0/7; the “T-C N° of days (tumor growth delay, 1 g)” value was 9 days; the “T.I. % (tumor inhibition)” value was found to be 80%. The “Tox (number of toxic deaths/number of mice)” value in data set [2] (setting [7]) is recorded as 0/7. Moreover, in data set [2] (setting [8]), the “N° of Tumor-Free Survivors” value is 0/7; the “T-C N° of days (tumor growth delay, 1 g)” value is 12 days; the “T.I. % (tumor inhibition)” value was 86%; the “Tox (number of toxic deaths/number of mice)” value is 0/7. In data set [2] (Paclitaxel alone 33 mg/kg/day iv q4dx3, day 13), the “Body weight Reduction % (day)” value is reported as 3%.
Consider `CC(=O)[C@]1(O)Cc2c(O)c3c(c(O)c2[C@@H](OC2CC(N4CC4)C(OS(C)(=O)=O)C(C)O2)C1)C(=O)c1ccccc1C3=O` (some centres unmarked) [Ia, 4-demethoxy-3′-deamino-3′-aziridinyl-4′-methansulfonyl daunorubicin], for which the “ILS % (increase in life span)” value in data set [3] (setting [9]) worked out at 83%. Moreover, the “Tox (number of toxic deaths/number of mice)” value is recorded as 0/10 in data set [3] (setting [9]); 0/9 in data set [1] (setting [10]); 0/8 in data set [1] (setting [11]); 0/7 in data set [2] (setting [12]); 0/8 in data set [4] (setting [13]); 0/7 in data set [4] (setting [14]). In addition, the “N° of Tumor-Free Survivors” value in data set [1] (setting [10]) is given as 0/9; in data set [1] (setting [11]) it was 0/8; in data set [2] (setting [12]) it was 0/7; in data set [4] (setting [13]), 0/8; in data set [4] (setting [14]), 1/7. Also, the “T-C N° of days (tumor growth delay, 1 g)” value is on record as 5 days in data set [1] (setting [10]), 9 days in data set [1] (setting [11]) and 47 days in data set [2] (setting [12]). Besides, the “T.I. % (tumor inhibition)” value is recorded as 48% in data set [1] (setting [10]); 69% in data set [1] (setting [11]); 100% in data set [2] (setting [12]); 46% in data set [4] (setting [13]); 94% in data set [4] (setting [14]). For the same compound, the “Body weight Reduction % (day)” value in data set [1] (Table 2, Ia alone 1.5 mg/kg/day iv q4dx3, day 14) was 9(14) %; in data set [1] (Table 3, Ia alone 2 mg/kg/day iv +7,11,15, day 13), 11%; in data set [2] (Ia alone 1.5 mg/kg/day iv q4dx3, day 15), 7%; in data set [4] (setting [13]), 0%; in data set [4] (Ia alone 1 mg/kg/day iv 8,12,16, day 17), 5%. Further, the “TGD (lg) days (tumor growth delay treated - control)” value (“TGD (lg) days” for short) worked out at 1 days in data set [4] (setting [13]) and 2 days in data set [4] (setting [14]).
As to `CC(=O)O[C@@]12CO[C@@H]1C[C@H](O)[C@@]1(C)C(=O)[C@H](O)C3=C(C)[C@@H](OC(=O)[C@H](O)[C@@H](NC(=O)OC(C)(C)C)c4ccccc4)C[C@@](O)([C@@H](OC(=O)c4ccccc4)[C@H]21)C3(C)C` [Taxotere, Docetaxel], in data set [4] (setting [15]), the “Body weight Reduction % (day)” value came to 0%, the “N° of Tumor-Free Survivors” value was 0/8, the “T.I. % (tumor inhibition)” value is listed as 60% and the “TGD (lg) days” value is 1 days. The “Tox (number of toxic deaths/number of mice)” value in data set [4] (setting [15]) is reported as 0/8. In data set [4] (setting [16]), the “N° of Tumor-Free Survivors” value is on record as 2/8, the “T.I. % (tumor inhibition)” value came to 99%, the “TGD (lg) days” value was 42 days and the “Tox (number of toxic deaths/number of mice)” value was 0/8. For the same compound, the “Body weight Reduction % (day)” value in data set [4] (Taxotere alone 10 mg/kg/day iv 10,14,18, day 25) stood at 8%.
With `O=C1[O][Pt]2([NH][C@@H]3CCCC[C@H]3[NH]2)[O]C1=O` [Oxaliplatinum, Oxaliplatin], the “ILS % (increase in life span)” value in data set [3] (Oxaliplatinum alone 8 mg/kg/day ip day +3) was 83%.
Regarding `N.N.[Cl][Pt][Cl]` [CisPlatin], in data set [1] (setting [17]), the “N° of Tumor-Free Survivors” value was 0/9; the “T-C N° of days (tumor growth delay, 1 g)” value was 0 days; the “T.I. % (tumor inhibition)” value is given as 16%. In addition, in data set [1] (Table 2, CisPlatin alone 3 mg/kg/day iv q4dx2, day 18), the “Body weight Reduction % (day)” value is 2(18) %.
